Reference: US20210106581A1, “Treatment Of Liver Diseases” (Melior Pharmaceuticals I, Inc., priority 2018, published 2021)
“Also recorded” adds a separate entry of the source.

How the values were obtained:
Format in all cases: in vivo
[1] = tested on: male C57BL/6 mice on modified high fat diet (mHFD); experiment: Modified high fat diet (mHFD) mouse model, serum and liver triglycerides (Example 1); settings: 30 mg/kg or 100 mg/kg i.p. once daily, 8 weeks
Protocol: The animal model was performed essentially as described in Cong et al., Life Sciences, 2008, 82, 983-990. Briefly, male C57BL/6 mice at 6 weeks of age were fed, ad libitum, a modified high fat diet (mHFD) provided by Research Diets, and described in Cong et al. One group of control animals (n=11) remained on standard diet. All animals remained on their respective diets for 23 weeks (29 weeks of age). At that time, animals continued to remain on their respective diets and treatment regimens began. The group of animals on standard diet and one group of animals on mHFD (n=9) received vehicle administered by intraperitoneal injection, once daily. Two additional groups of animals on mHFD (n=8) received Compound 102 administration by intraperitoneal injection, once daily at either 30 mg/kg or 100 mg/kg. Compound 102 was formulated in, and the vehicle used was, 20% hydroxypropyl beta cyclodextrin (HPBCD). Treatment regimen continued for an additional 8 weeks while the animals remained on their respective diets. At the end of 8 weeks of treatment, animals were fasted for 6 hours. […] Serum triglycerides and liver triglyceride were measured from the respective samples using Triglyceride assay kit (Wako Diagnostics, Richmond, Va.; Cat No 461-8992). Data were averaged and are expressed as the average SEM. Data were analyzed by two-way repeated measures ANOVA followed by a Dunnett's post hoc test. […]

[2] = tested on: male BALB/c mice with CCl4-induced liver fibrosis; experiment: CCl4-induced liver fibrosis mouse model (Example 3)
Protocol: In the following study, 6 to 7 week old male BALB/c mice (25-30 g) were randomized based on body weight after 7-day of CCl4 injections (3 times). Mice were fed standard rodent chow and water ad libitum. The mice were divided into 4 groups, with 12 mice per group. The mice were administered a dose volume of 10 mL/kg (MLR-1023), 2.5 mL/kg (CCl4), each in a formulation of 20% HBPCD/saline and corn oil intraperitoneally (i.p.). The dose level of MLR-1023 was 30 and 100 mg per kg, and the dose level of CCl4 was 5%. The dose frequency of MLR-1023 was once daily (QD), and the dose frequency of CCl4 was 3 times a week (Monday, Wednesday, and Friday). The study duration was 28 days, with MLR-1023 treatment started from day 8 to day 28. CCl4 was obtained from Sigma-Aldrich (St. Louis, Mo.). A commercial kit was used for analyzing liver hydroxyproline content (BioVision, Inc.; Milpitas, Calif.). ALT and AST kits were purchased from BIOO Science (Austin, Tex.). All other reagents used in the study were of analytical grade. Male BALB/c mice were obtained from Charles River Laboratories (Wilmington, Mass.). On the last day of the study all mice were sacrificed by cervical dislocation. Blood/serum samples were collected for the assays of liver enzymes (ALT and AST). Livers were rapidly dissected and part of each liver was cut and fixed in formaldehyde saline (4%) solution for histological analysis; the remainder of the liver was snap frozen in liquid nitrogen, and stored at −70° C. until use. Starting on Day 1, animals were administered i.p. with 5% CCl4 or corn oil (vehicle for CCl4 solution) three days per week (Monday, Wednesday, and Friday) for 4 weeks. CCl4 was formulated as a […] with the dose volume of 2.5 mL/kg, and was freshly formulated on a weekly basis. Animals were weighed weekly. Test compounds and vehicle administrations were performed from Day 8 to Day 28. At the end of study, blood was drawn through retro-orbital punctures for serum collection. The whole liver was removed. One lobe was placed in a tube containing 10% formalin for histopathology, the remainder of the liver lobes were collected and snap frozen for further hydroxyproline assay. Homogenized liver samples were evaluated for hydroxyproline content to assess hepatic collagen levels. Serum was separated by centrifugation at 4° C. and analyzed immediately or stored at −70° C. Serum ALT and AST levels were determined by colorimetric method and using procedures described by the kit manufacturers. Hepatic hydroxyproline content was measured by colorimetric method and expressed as μg/mg wet liver weight. Livers were removed at necropsy and fixed in 10% buffered formalin. Sections of liver were processed routinely, sectioned at approximately 4 microns, and stained with hematoxylin and eosin (H&E) or picrosirius red (PSR). Glass slides were evaluated using light microscopy by a board-certified veterinary/toxicology pathologist in a blind manner. Two sections from each animal were examined. Five animals from each group were randomly chosen for histology analysis. The severity of histologic findings was scored using the Society of Toxicologic Pathology best practices (1=minimal, 2=mild, 3=moderate, 4=marked, 5=Severe). Fibrosis value is corresponding to the fraction of centrilobular areas affected by fibrosis (1=about <10%, 2=about 11-30%, 3=about […], 4=about […], 5=about 71-100%). Liver fibrosis is characterized by increased numbers of fibroblasts and collagen fibers in liver sinusoids that partially, or completely, bridged centrilobular areas. PSR staining severity generally correlated with the mean severity of fibrosis. Overall increased collagen deposition and bridging fibrosis are identified with PSR stain. […]

[3] = tested on: male C57BL/6NCrl mice on modified high fat diet (mHFD); experiment: Extended mHFD NASH mouse study, 8-week treatment (Example 2)
Description: The modified high fat diet (mHFD) was obtained from Research Diets, Inc. (New Brunswick, N.J.) and was formulated according to Cong et al., supra. The mHFD contained 60% fat, 14% protein, and 26% carbohydrate, with total energy content of 21.0 kJ/g. The mHFD contained a low concentration of choline bicitrate a (0.6 g/kg) and DL-methionine (1.5 g/kg). Fatty acid composition of the fats (mainly from lard) in mHFD was 36% saturated fatty acids, 45% monounsaturated fatty acids, and 19% polyunsaturated fatty acids (PUFA).
Male C57BL/6NCrl mice were obtained from Charles River Laboratories (Wilmington, Mass.). Mice were maintained in microisolator cages, in groups of no more than 4 animals per cage, and on a 12-hour light cycle. Food and water were provided ad libitum. On the last day of the study, all mice were sacrificed by cervical dislocation after a 4-hour food deprivation. Livers were rapidly dissected and part of each liver was cut and fixed in formaldehyde saline (4%) solution for histological analysis. The rest of the liver was snap frozen in liquid nitrogen, and stored at −70° C. until use.
Mice were acquired at 3-4 weeks of age (body weight of about 11-12 g). Mice were fed a standard chow (Control group) or mHFD (Model group) for 22 weeks. […] At week-22, based on body weight consideration, the mHFD-fed mice were screened and distributed in a balanced fashion into 3 groups for the compound treatment study (Table 1).
During the 8-week drug treatment phase, all animals (except for standard-chow controls) remain on the mHFD diet. During the treatment period, the summary of measurement schedule is as below: • 1) Body weight (BW) was taken once a week. • 2) Terminal blood and whole Liver were collected. • 3) Hepatic histology (NAS score) was assessed.
Livers were removed at necropsy and fixed in 10% buffered formalin. Sections were processed to paraffin by routine histological methods and 4 μm sections were stained with hematoxylin and eosin. Sections were evaluated under light microscopy by a board-certified veterinary pathologist for identification of proliferative lesions as well as severity scoring of lesions associated with steatohepatitis. The pathologist was blinded to the treatment status. Steatohepatitis parameters were scored and classified according to a standardized histological scoring system for NASH described by Kleiner et al., Hepatology, 2005, 41, 1313-1321. In brief, individual livers were evaluated for steatosis, lobular inflammation, and ballooning degeneration of hepatocytes, and given a score of (03) for steatosis and inflammation, and (02) for ballooning degeneration, using previously defined criteria (see below). An NAFLD activity score (NAS) was obtained by summing the individual parameter scores.
Steatosis Location: 0: Predominantly zone 3 (centrilobular); 1: Predominantly zone 1 (periportal); 2: Azonal (defined as when the pattern could not be fit into one of the other categories or marked architectural change); and 3: Panacinar (defined as involving all zones of the liver equally).
Inflammation: 0: No foci; 1: <2 foci per 200× field; 2: 2-4 foci/200× field; and 3: >4 foci/200× field.
Ballooning Degeneration: 0: None; 1: Few balloon cells; and 2: Many cells/prominent ballooning.
Data are expressed as the average±SEM at each week and analyzed by Unpaired T-tests as applicable using Prism® software (GraphPad Software, Inc., Las Jolla, Calif.). A p-value of less than 0.05 indicates a significant difference between treatment groups.

[4] = both treatments (30 and 100 mpk), H&E, FIG. 11

Cc1cccc(Oc2cnc(=O)[nH]c2)c1 [MLR-1023, tolimidone]
circulating serum triglyceride levels ([1]; 6 h fasted, FIG. 1): significantly reduced
accumulation of triglycerides in the liver ([1]; FIG. 2): significantly reduced
CCl4-induced collagen deposition ([2]; 100 mg per kg, 21-day treatment): significantly reduced
fibrosis percentage ([2]; 100 mg per kg, 21-day treatment, PSR): reduced
scores of hepatic inflammation ([2]; 100 mg per kg, H&E, vs CCl4-vehicle, FIG. 12): reduced
CCl4-induced increase of liver enzymes, especially AST ([2]; 21-day treatment, summary statement): mild improvement; also recorded: mild effects
serum AST levels ([2]; 30 and 100 mg per kg i.p. QD day 8-28, vs CCl4-vehicle, dose-dependent manner, FIG. 9): trended towards improving
hepatic hydroxyproline levels ([2]; 30 and 100 mg per kg i.p. QD day 8-28, vs CCl4-vehicle, dose-dependent manner, FIG. 10): significantly reduced
serum ALT levels ([2]; 30 and 100 mg per kg i.p. QD day 8-28, vs CCl4-vehicle, FIG. 9): did not significantly affect
scores of hepatic necrosis/mineralization ([2]; 30 and 100 mg per kg, H&E, vs CCl4-vehicle, FIG. 12): trended towards reducing; also recorded: reduced
inflammation (pathologist's general assessment) [2, 4]: still present
necrosis (pathologist's general assessment) [2, 4]: dose-related effect
fibrosis (pathologist's general assessment) ([2]; both treatments (30 and 100 mpk), PSR, FIG. 11): dose-related effect
NAFLD activity score (NAS) ([3]; 30 mpk (30 mg/kg) IP, vs MD-vehicle, FIG. 6): significantly reduced
body weight ([3]; 30 mpk IP, 8-week treatment, vs MD-vehicle, FIG. 3): significantly reduced
liver weight ([3]; 30 mpk IP, 8-week treatment, vs MD-vehicle, FIG. 4): significantly reduced
TG content in liver ([3]; 30 mpk IP, vs MD-vehicle, FIG. 2): significantly reduced
body weight ([3]; 100 mpk IP, 8-week treatment, vs MD-vehicle, FIG. 3): trend in reduction (p=0.056)
liver weight ([3]; 100 mpk IP, 8-week treatment, vs MD-vehicle, FIG. 4): significantly reduced
hepatocellular ballooning ([3]; 100 mpk, FIG. 7): significantly reduced
body weight ([3]; FIG. 3 legend, dose not stated): significantly reduced
liver weight ([3]; FIG. 4 legend, dose not stated): significantly reduced
hepatocellular ballooning (histology) ([3]; dose not stated, FIGS. 7, 8A, 8B): reduced amount
steatosis (histology) ([3]; dose not stated, FIGS. 8A, 8B): reduced
